Measured values taken from ChEMBL document CHEMBL2346501, “Synthesis and evaluation of coumarin derivatives as potential dual-action HIV-1 protease and reverse transcriptase inhibitors” (Bioorg Med Chem, 2013).

Tests used:
[1] = biological target: Protease (Human immunodeficiency virus 1) (UniProt Q9YQ12); experiment: Inhibition of HIV1 protease at 50 uM relative to control
[2] = biological target: Human immunodeficiency virus type 1 reverse transcriptase (Human immunodeficiency virus 1) (UniProt Q72547); experiment: Inhibition of HIV1 reverse transcriptase at 50 uM relative to control
[3] = biological target: Human immunodeficiency virus type 1 reverse transcriptase (Human immunodeficiency virus 1, UniProt Q72547); experiment: Inhibition of HIV1 reverse transcriptase
[4] = biological target: Protease (Human immunodeficiency virus 1, UniProt Q9YQ12); experiment: Inhibition of HIV1 protease
Protease, sequence (Q9YQ12 whole entry): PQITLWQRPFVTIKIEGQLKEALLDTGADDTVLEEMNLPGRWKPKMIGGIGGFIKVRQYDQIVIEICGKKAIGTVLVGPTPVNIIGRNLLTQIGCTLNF

Protease (Human immunodeficiency virus 1), sequence (Q9YQ12 as listed by the source): as the sequence (Q9YQ12 whole entry) above

| inhibition [1] | inhibition [2] | IC50 [3] | IC50 [4] | Compound |
| --- | --- | --- | --- | --- |
| 61% | 92% | 5.59 µM | 27.1 µM | Cc1cn([C@H]2C[C@H](n3cc(CNCc4cc5ccccc5oc4=O)nn3)[C@@H](CO)O2)c(=O)[nH]c1=O |
| 64% | 29% | 106 µM | 21.6 µM | COc1cccc2cc(CNCc3cn([C@H]4C[C@H](n5cc(C)c(=O)[nH]c5=O)O[C@@H]4CO)nn3)c(=O)oc12 |
| 57% | 94% | 6.1 µM | 28.9 µM | Cc1cn([C@H]2C[C@H](n3cc(CNCc4cc5cc(Br)ccc5oc4=O)nn3)[C@@H](CO)O2)c(=O)[nH]c1=O |
| 62% | 21% | 114 µM | 23.3 µM | CCOc1cccc2cc(CNCc3cn([C@H]4C[C@H](n5cc(C)c(=O)[nH]c5=O)O[C@@H]4CO)nn3)c(=O)oc12 |

Continued, compound first:

| Compound | inhibition [1] | inhibition [2] | IC50 [3] | IC50 [4] |
| --- | --- | --- | --- | --- |
| Cc1cn([C@H]2C[C@H](n3cc(CNCC(=O)N(Cc4ccccc4)Cc4cc5ccccc5oc4=O)nn3)[C@@H](CO)O2)c(=O)[nH]c1=O | 52% | 96% | 3.4 µM | 35.1 µM |
| Cc1cn([C@H]2C[C@H](n3cc(CNCC(=O)N(Cc4ccccc4)Cc4cc5cc(Br)ccc5oc4=O)nn3)[C@@H](CO)O2)c(=O)[nH]c1=O | 52% | 94% | 4.24 µM | 32 µM |
| COc1cccc2cc(CN(Cc3ccccc3)C(=O)CNCc3cn([C@H]4C[C@H](n5cc(C)c(=O)[nH]c5=O)O[C@@H]4CO)nn3)c(=O)oc12 | 60% | 97% | 2.88 µM | 22.7 µM |
| Cc1cn([C@H]2C[C@H](n3cc(CNCC(=O)N(Cc4ccccc4)Cc4cc5cc(Cl)ccc5oc4=O)nn3)[C@@H](CO)O2)c(=O)[nH]c1=O | 58% | 99% | 3.69 µM | 29.5 µM |
| Cc1cn([C@H]2C[C@H](n3cc(CNCc4cc5cc(Cl)ccc5oc4=O)nn3)[C@@H](CO)O2)c(=O)[nH]c1=O | 56% | 24% | 102 µM | 24.8 µM |
| CC(C)c1nc(CN(C)C(=O)N[C@H](C(=O)N[C@@H](Cc2ccccc2)C[C@H](O)[C@H](Cc2ccccc2)NC(=O)OCc2cncs2)C(C)C)cs1 | 72% | – | – | – |
| CCOc1cccc2cc(CN(Cc3ccccc3)C(=O)CNCc3cn([C@H]4C[C@H](n5cc(C)c(=O)[nH]c5=O)O[C@@H]4CO)nn3)c(=O)oc12 | 58% | 97% | 2.86 µM | 27.3 µM |
